Source: US20180305424A1, “Methods of Inducibly Targeting Chromatin Effectors and Compositions for Use in the Same” (The Board of Trustees of the Leland Stanford Junior …, priority 2015, published 2018)
“And” between values parts separate entries of the source, which are not always exact repeats. Equal entries are not always repeated.

Tests used:
Assay type in all cases: cell-based, mouse
[1] = system: BAF complex recruitment to the modified Oct4 (Pou5f1) locus in CiA MEF cells; assay: Recruitment assay (ON): rapamycin-induced BAF complex recruitment to the CiA Oct4 locus, ChIP-qPCR; settings: 24 hours of rapamycin treatment (3 nM); Frb-V5-tagged BAF subunit fusions; CiA MEFs
Text: CiA mouse embryonic fibroblasts (MEFs) containing a modified Oct4 promoter (with 12×ZFHD1 and 6×GAL4 sites upstream of the promoter) were generated, cultured and maintained as previously described (Hathaway et al., “Dynamics and memory of heterochromatin in living cells,” Cell (2012) 149:1447-1460). Briefly, lentiviral delivery constructs bearing an EF1-alpha promoter and either puromycin or blasticidin resistance were generated to contain the constructs described here (FIG. 1a). To generate recruitable forms of BAF complexes, individual subunits (SS18, BRG, BAF47, BAF57) were N-terminally fused to Frb-V5. […]
Briefly, for rapid time course assays, adherent CiA MEF cells were washed once in PBS, scraped off plates into fix buffer (50 mM HEPES, 1 mM EDTA, 0.5 mM EGTA, and 100 mM NaCl), resuspended, and immediately formaldehyde fixed. […] Chromatin input was reverse crosslinked and evaluated for shearing efficiency and 100-150 μg of chromatin stock was used per immunoprecipitation reaction. […]
(§1) CiA knock-in locus-specific primers were generated with plus (+) and minus (−) direction distances calculated from the middle of the ZFHD1 recruitment domain as well as […] distances calculated from the Oct4 transcription start site (TSS). Briefly, enrichment (bound over input) averages and standard deviations were calculated over n=5 repeat experiments for each primer set. […]

[2] = system: BAF complex tethering to the Oct4 locus in CiA MEF cells; assay: OFF/washout experiments: FK1012 competition of rapamycin-tethered BAF complexes, ChIP-qPCR
Method: Briefly, adherent CiA MEF cells were treated with 3 nM (final) rapamycin (sirolimus; Sellekchem #S1039) (ON experiments) or 3 nM rapamycin followed by 30 nM FK1012 (OFF/washout experiments) for prescribed times (2.5 minutes-24 hours). For acute time points, cells were harvested rapidly by washing media out once with PBS, scraping cells off plates with a cell scraper, resuspending in CiA fix buffer, and formaldehyde fixing for subsequent ChIP analyses.
Briefly, for rapid time course assays, adherent CiA MEF cells were washed once in PBS, scraped off plates into fix buffer (50 mM HEPES, 1 mM EDTA, 0.5 mM EGTA, and 100 mM NaCl), resuspended, and immediately formaldehyde fixed. After cross-linking, cells (7-10×10̂6) were washed and sonicated for 13.5 minutes using a Covaris E220 Sonicator (Covaris, Inc., Woburn, Mass.). Chromatin input was reverse crosslinked and evaluated for shearing efficiency and 100-150 μg of chromatin stock was used per immunoprecipitation reaction. […]
as §1

[3] = system: DNA accessibility at the Oct4 locus in CiA Oct4 MEF cells; assay: Transposase (Tn5) chromatin accessibility assay after FK1012 addition; settings: post-addition of FK1012 (removal of the BAF complex)
Method: Following various recruitment conditions, 5×10̂4 CiA Oct4 MEF cells were harvested, washed once in PBS, once in RSB buffer (10 mM Tris-HCl, pH 7.4, 10 mM NaCl, 3 mM MgCl2), and centrifuged at 500×g for 5 minutes at 4 degrees C. Cells were then lysed in lysis buffer (500 ul RSB buffer+5 ul 10% NP-40) for 5 minutes on ice, spun at 500×g for 5 minutes, resuspended in Tagment DNA/Enzyme Buffer Mix (Illumina Nextera Sample Preparation Kit, Cat. # FC-121-1030), and incubated for 30 minutes at 37° C. Following Tn5 transposase enzyme reaction, DNA was purified using Quiagen MinElute PCR Purification Kit (Cat #28004). Transposed DNA fragments were amplified via qPCR to the appropriate number of cycles and library was purified using a Quiagen PCR Cleanup Kit eluted in 20 ul of elution buffer (10 mM Tris Buffer, pH 8.0). CiA locus-specific qPCR was performed using primers in Supplemental Table 2.

| Compound | BAF complex recruitment (fold enrichment over baseline by ChIP-qPCR) [1] | Decrease in BAF complex tethering to the Oct4 locus, FK1012 addition versus rapamycin washout (media change) ([2]; 3 nM rapamycin followed by 30 nM FK1012) | Time at which PRC2 (Ezh2) and PRC1 (Ring1B) began to reappear ([2]; post-addition of FK1012, paralleled by reappearance of H3K27Me3 and H2AUb1) | Time at which inaccessible chromatin began to reform [3] |
| --- | --- | --- | --- | --- |
| CO[C@H]1C[C@@H]2CC[C@@H](C)[C@@](O)(O2)C(=O)C(=O)N2CCCC[C@H]2C(=O)O[C@H]([C@H](C)C[C@@H]2CC[C@@H](O)[C@H](OC)C2)CC(=O)[C@H](C)/C=C(\C)[C@@H](O)[C@@H](OC)C(=O)[C@H](C)C[C@H](C)/C=C/C=C/C=C/1C [rapamycin] | 20-40 fold and 40-60 fold | – | – | – |
| FK1012 | – | more rapid, robust decreases | ~2 h | 2.5 to 5 h |
